Experimental data: US12280052B2, “Compositions and methods for the treatment of adenomyosis and rectovaginal endometriosis” (ObsEva S.A., priority 2018, dated 2025)

Assays:
[1] = tested on: human female patients suffering from adenomyosis; experiment: open-label Phase II clinical trial of compound (VI) in adenomyosis, representative patient; type: in vivo; conditions: for mB&B score: composite score 0-15, baseline 6.0 (Severe); for mB&B score / Change from baseline in EHP-30 score for control and powerlessness / Change from baseline in EHP-30 score for emotional well-being / Change from baseline in EHP-30 score for pain / Change from baseline in EHP-30 score for self-image / Change from baseline in EHP-30 score for social support / Change from baseline in global pelvic pain by NRS / Change from baseline in mB&B score / Change from baseline in uterine volume by MRI / Change from baseline in uterine volume by TVUS / Uterus height by TVUS / Uterus depth by TVUS / Uterus length by TVUS / mB&B score, severity class / EHP-30 Score: Pain (Questions 1-11 of EHP-30) / EHP-30 Score: Social Support (Questions 24-27 of EHP-30) / EHP-30 Score: Self-Image (Questions 28-30 of EHP-30) / EHP-30 Score: Emotional Well-being (Questions 18-23 of EHP-30) / EHP-30 Score: Control and Powerlessness (Questions 12-17 of EHP-30) / Global pelvic pain by numerical rating scale (NRS) / Patient Global Impression of Change since Baseline (PGIC) / Uterus volume by transvaginal ultrasound (TVUS) / Uterus volume by MRI: representative patient; for Uterus height by TVUS: baseline 5.6 cm; for Uterus depth by TVUS: baseline 6.5 cm; for Uterus length by TVUS: baseline 6.7 cm; for mB&B score, severity class: baseline Severe; for EHP-30 Score: Pain (Questions 1-11 of EHP-30): scale 0 (best) to 100 (worst health status), baseline 63.6; for EHP-30 Score: Social Support (Questions 24-27 of EHP-30) / EHP-30 Score: Self-Image (Questions 28-30 of EHP-30) / EHP-30 Score: Emotional Well-being (Questions 18-23 of EHP-30) / EHP-30 Score: Control and Powerlessness (Questions 12-17 of EHP-30): scale 0 (best) to 100 (worst); for EHP-30 Score: Social Support (Questions 24-27 of EHP-30): baseline 43.8; for EHP-30 Score: Self-Image (Questions 28-30 of EHP-30): baseline 50.0; for EHP-30 Score: Emotional Well-being (Questions 18-23 of EHP-30): baseline 66.7; for EHP-30 Score: Control and Powerlessness (Questions 12-17 of EHP-30): baseline 70.8; for Global pelvic pain by numerical rating scale (NRS): scale 0 (no pain) to 10 (worst pain imaginable), baseline 7; for Patient Global Impression of Change since Baseline (PGIC): scale 1 (Very much improved) to 7 (very much worse); for Uterus volume by transvaginal ultrasound (TVUS): volume = l × h × d × 0.523, baseline 128 cm^3; for Uterus volume by MRI: baseline 198
Description: This example describes the results of an open-label, Phase II clinical trial examining the safety and efficacy of the GnRH antagonist, compound (VI) (3-[2-fluoro-5-(2,3-difluoro-6-methoxybenzyloxy)4-methoxyphenyl]-2,4-dioxo-1,2,3,4-tetrahydrothieno [3,4d]pyrimidine-5-carboxylic acid), for treating human female patients suffering from adenomyosis. The study began with a 4-week patient screening period, followed by two consecutive 12-week treatment periods. During the first 12-week treatment period, patients were administered compound (VI) in a single daily dose of 200 mg. During the second 12-week treatment period, patients were administered compound (VI) in a single daily dose of 100 mg. Patients then entered a post-treatment follow-up period during which the effects of compound (VI) were further assessed.
The total duration of this study (from the screening visit to the end-of-study visit) was 40 weeks per subject. The study began with a 4-week screening period evaluating the symptoms of uterine adenomyosis and assessing the volume of each patient's adenomyosis-affected uterus by way of MRI. During this period, the patients received no study drug.
At the start of menstruation, the patients were administered 200 mg of compound (VI), once daily, in the form of the corresponding choline salt. The administration continued over the course of a 12-weel treatment period, referred to as the “initiation phase,” so as to maximize the effect of the treatment. After the first 12-week treatment period, the therapeutic effect of the GnRH antagonist was maintained by administering 100 mg of compound (VI), once daily, over the course of a second 12-week treatment period. This second treatment period was referred to as the “maintenance phase.”
At the end of the maintenance phase (at week 24), the patients entered a 12-week follow-up period without any active treatment.
The primary efficacy endpoint of this study was a change, from baseline to week 24, in volume of the adenomyosis-affected uterus, as measured by MRI. Secondary endpoints under investigation in this study were as follows: • Change from baseline to weeks 12 and 36 in volume of the uterus with adenomyosis measured by MRI • Change from baseline to weeks 12, 24 and 36 in volume of the uterus with adenomyosis measured by TVUS • Change from baseline to weeks 12, 24 and 36 in the largest thickness of the anterior and posterior part of the uterus myometrium (sagittal assessment) • Change from baseline to weeks 12, 24 and 36 in the largest diameter of the junctional zone of the uterine adenomyosis measured by MRI • Presence of blood spots on the MRI images • Change from baseline to weeks 12, 24 and 36 in uterus volume assessed at vaginal examination • Change from baseline to weeks 12, 24 and 36 in uterine tenderness assessed at vaginal examination • Change from baseline to weeks 12, 24 and 36 in dysmenorrhea, pelvic pain and dyspareunia according to the mB&B scale • Change from baseline to weeks 4, 8, 12, 16, 20, 24 and 36 for global pelvic pain assessed over the preceding 4-week period using a Numerical Rating Scale (NRS) with a monthly recall • Change from baseline to weeks 4, 8, 12, 16, 20, 24, 28, 32 and 36 in the mean monthly dyspareunia score defined as the mean of available daily dyspareunia scores over the preceding 4-week period assessed on the Verbal Rating Scale (VRS) dyspareunia scale and on a NRS • Change from baseline to weeks 4, 8, 12, 16, 20 and 24 fin the mean monthly dyschezia score defined as the mean of weekly dyschezia scores over the preceding 4-week period using a NRS • No uterine bleeding (or spotting only), during the 4-week period preceding weeks 4, 8, 12, 16, 20 and 24 using a simplified bleeding scale • Time to amenorrhea • Change from baseline to weeks 12, 24 and 36 in the Endometriosis Health Profile questionnaire (EHP-30) • Patient Global Impression of Change (PGIC) score at weeks 12, 24 and 36 Data Analysis and Statistics […]

human GnRH receptor = target: T1, human GnRH receptor (Homo sapiens, UniProt P30968); experiment: affinity for human GnRH receptor; type: binding; conditions: kind of constant not stated
T1 sequence (P30968 1-328): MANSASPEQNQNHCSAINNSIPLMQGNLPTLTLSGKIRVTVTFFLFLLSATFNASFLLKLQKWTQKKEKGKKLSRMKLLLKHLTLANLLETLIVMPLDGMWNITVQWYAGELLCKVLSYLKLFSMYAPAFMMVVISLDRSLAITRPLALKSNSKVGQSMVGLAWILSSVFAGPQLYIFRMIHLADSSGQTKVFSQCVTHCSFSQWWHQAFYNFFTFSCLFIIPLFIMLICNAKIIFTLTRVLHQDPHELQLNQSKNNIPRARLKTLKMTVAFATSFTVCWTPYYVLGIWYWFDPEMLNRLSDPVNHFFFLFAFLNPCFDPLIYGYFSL

[2] = week 24 (100 mg once daily after 12 weeks of 200 mg)

Structure (SMILES): COc1cc(F)c(-n2c(=O)[nH]c3csc(C(=O)O)c3c2=O)cc1OCc1c(OC)ccc(F)c1F [Compound (VI), 3-[2-fluoro-5-(2,3-difluoro-6-methoxybenzyloxy)4-methoxyphenyl]-2,4-dioxo-1,2,3,4-tetrahydrothieno [3,4d]pyrimidine-5-carboxylic acid]
- uterine volume, conclusion in words ([1]; 24 weeks of treatment, 200 mg then 100 mg once daily): sustained reduction in uterine volume
- adenomyosis-associated pain, conclusion in words ([1]; 24 weeks of treatment, 200 mg then 100 mg once daily, various metrics): substantial reduction in adenomyosis-associated pain
- mB&B score ([1]; week 12 (200 mg once daily)): 2.0
- Change from baseline in EHP-30 score for control and powerlessness ([1]; week 12 (200 mg once daily)): −70.8
- Change from baseline in EHP-30 score for emotional well-being ([1]; week 12 (200 mg once daily)): −66.7
- Change from baseline in EHP-30 score for pain ([1]; week 12 (200 mg once daily)): −63.6
- Change from baseline in EHP-30 score for self-image ([1]; week 12 (200 mg once daily)): −50.0
- Change from baseline in EHP-30 score for social support ([1]; week 12 (200 mg once daily)): −43.8
- Change from baseline in global pelvic pain by NRS ([1]; week 12 (200 mg once daily)): −7
- Change from baseline in mB&B score ([1]; week 12 (200 mg once daily)): −4
- Change from baseline in uterine volume by MRI ([1]; week 12 (200 mg once daily)): −114 cm^3
- Change from baseline in uterine volume by TVUS ([1]; week 12 (200 mg once daily)): −79 cm^3
- Uterus height by TVUS ([1]; week 12 (200 mg once daily)): 4.1 cm
- Uterus depth by TVUS ([1]; week 12 (200 mg once daily)): 5.0 cm
- Uterus length by TVUS ([1]; week 12 (200 mg once daily)): 4.5 cm
- mB&B score, severity class ([1]; week 12 (200 mg once daily)): Mild (Mild (1-2))
- EHP-30 Score: Pain (Questions 1-11 of EHP-30) ([1]; week 12 (200 mg once daily)): 0.0
- EHP-30 Score: Social Support (Questions 24-27 of EHP-30) ([1]; week 12 (200 mg once daily)): 0
- EHP-30 Score: Self-Image (Questions 28-30 of EHP-30) ([1]; week 12 (200 mg once daily)): 0
- EHP-30 Score: Emotional Well-being (Questions 18-23 of EHP-30) ([1]; week 12 (200 mg once daily)): 0
- EHP-30 Score: Control and Powerlessness (Questions 12-17 of EHP-30) ([1]; week 12 (200 mg once daily)): 0
- Global pelvic pain by numerical rating scale (NRS) ([1]; week 12 (200 mg once daily)): 0
- Patient Global Impression of Change since Baseline (PGIC) ([1]; week 12 (200 mg once daily)): 1—Very
- Uterus volume by transvaginal ultrasound (TVUS) ([1]; week 12 (200 mg once daily)): 48 cm^3
- Uterus volume by MRI ([1]; week 12 (end of initiation phase, 200 mg once daily as choline salt)): 84 cm^3
- mB&B score [1, 2]: 2.0
- Change from baseline in EHP-30 score for control and powerlessness [1, 2]: −70.8
- Change from baseline in EHP-30 score for emotional well-being [1, 2]: −66.7
- Change from baseline in EHP-30 score for pain [1, 2]: −56.8
- Change from baseline in EHP-30 score for self-image [1, 2]: −50.0
- Change from baseline in EHP-30 score for social support [1, 2]: −43.8
- Change from baseline in global pelvic pain by NRS [1, 2]: −6
- Change from baseline in mB&B score [1, 2]: −4
- Change from baseline in uterine volume by MRI [1, 2]: −123 cm^3
- Change from baseline in uterine volume by TVUS [1, 2]: −79 cm^3
- Uterus height by TVUS [1, 2]: 4.0 cm
- Uterus depth by TVUS [1, 2]: 5.0 cm
- Uterus length by TVUS [1, 2]: 4.6 cm
- mB&B score, severity class [1, 2]: Mild (Mild (1-2))
- EHP-30 Score: Pain (Questions 1-11 of EHP-30) [1, 2]: 6.8
- EHP-30 Score: Social Support (Questions 24-27 of EHP-30) [1, 2]: 0
- EHP-30 Score: Self-Image (Questions 28-30 of EHP-30) [1, 2]: 0
- EHP-30 Score: Emotional Well-being (Questions 18-23 of EHP-30) [1, 2]: 0
- EHP-30 Score: Control and Powerlessness (Questions 12-17 of EHP-30) [1, 2]: 0
- Global pelvic pain by numerical rating scale (NRS) [1, 2]: 1
- Patient Global Impression of Change since Baseline (PGIC) [1, 2]: 1—Very
- Uterus volume by transvaginal ultrasound (TVUS) [1, 2]: 48 cm^3
- Uterus volume by MRI ([1]; week 24 (end of maintenance phase, 100 mg once daily after 12 weeks of 200 mg)): 75 cm^3
- affinity for human GnRH receptor (human GnRH receptor): 27.4 nM
